Data from patent US6168776A (priority 1997, dated 2001).
Entries after “also recorded” stand apart in the source; their conditions may differ.

Key:
[1] = Staining of AD brain sections (fluorescence microscopy); parameters: species or system human; conditions: in words
Description: 26: 241-242 (1973) with 1 mM 1,4-bis(3-carboxy-4-hydroxyphenylethenyl)-benzene substituted for Congo red, but the procedure was otherwise identical. Stained slides were examined using fluorescence microscopy.
(§1) The staining method was that of Stokes and Trickey, J. Clin. Pathol. 26: 241-242 (1973) with 1,4-bis(3-carboxy-4-hydroxyphenylethenyl)-benzene substituted for Congo red.

[2] = Staining of transgenic mouse brain section; conditions: in words
Excerpt: FIG. 11. […] 26: 241-242 (1973). […] The photomicrograph was obtained using fluorescence microscopy.
as §1

Aβ(10-43) [3] = biological target: T1, Aβ(10-43) (Homo sapiens, UniProt P05067); assay: Inhibition of [14C] Chrysamine G binding to Aβ(10-43); conditions: for binding activity to Aβ / Ki relative to Chrysamine G / potency/affinity relative to reference compound: in words; for potency/affinity relative to reference compound: vs Chrysamine G or, for Chrysamine G, vs Congo red; for energy of binding: ΔG=-RT ln Keq, from KD (Chrysamine G) or Ki (aniline derivative)
T1 sequence (P05067 681-714): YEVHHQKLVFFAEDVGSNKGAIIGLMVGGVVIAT

[4] = [14C] Chrysamine G binding to Down's syndrome brain homogenates; parameters: species or system human; conditions: two patients, FIG. 9C
Excerpt: FIGS. 9A, 9B and 9C. […] The data points represent the ratio of [^14 C] […] Horizontal bars represent the mean and error bars represent the standard error for control (circles), and AD brain (diamonds in 9A and 9B). […] Asterisks indicate significant differences compared to control (*p<0.05; **p<0.001). The diamonds in 9C represent a brain from a Down's syndrome patient not yet symptomatic with AD. The triangles in 9C represent a Down's syndrome patient who had developed AD as do the vast majority of Down's syndrome patients by their 40's.

Aβ(10-43) [5] = biological target: T1, Aβ(10-43); assay: Scatchard analysis of [14C] Chrysamine G binding to synthetic Aβ(10-43); conditions: read-out: dissociation constant; approximately; whether by Scatchard analysis, kinetic methods, or inhibition of binding
[6] = Scatchard analysis of [14C]CG binding to control brain homogenates
[7] = Metabolism of [14C] Chrysamine G in mouse brain and liver
[8] = Correlation of [14C]CG binding with neuritic plaque (NP) and neurofibrillary tangle (NFT) counts; parameters: species or system human
Description: FIG. 8B is a graph illustrating the correlation between the amount of [^14 C] […] The filled symbols and heavy lines indicate brains without amyloid angiopathy, the open symbols and dashed lines indicate brains with amyloid angiopathy. The y-axis represents total, absolute [^14 C] […] Approximately 75 μg protein and 150 nM [^14 C] Chrysamine G were used.

[9] = Tissue levels after i.v. injection of [14C] Chrysamine G in mice (blood-brain barrier); type: in vivo, Swiss-Webster mice; conditions: 15 to 35 min after i.v. injection
[10] = Total [14C] Chrysamine G binding to AD brain homogenates; parameters: species or system human
[11] = Scatchard analysis of [14C]CG binding to AD brain homogenates
PC-12 cells = assay: Protection from Aβ(25-35)-induced toxicity in PC-12 cells (MTT reduction); conditions: for protective effects in cells incubated with 1 μM Aβ(25-35): Chrysamine G at 0.1 and 1 μM, FIG. 14; for protective effect against Aβ(25-35)-induced decrease in MTT reduction: in words, FIGS. 12 and 13
[12] = Total [14C] Chrysamine G binding to control brain homogenates; parameters: species or system human
amylin = conditions: in words; cited from earlier work
Aβ [13] = conditions: in words; cited from earlier work
[14] = in words; Tubis et al.; cited from earlier work
Aβ [15] = conditions: cited from earlier work
[16] = Octanol/water partitioning; conditions: 1-octanol / phosphate buffered saline pH 7.4
[17] = guinea pigs; Tubis et al.; cited from earlier work

For `O=C(O)c1cc(C=Cc2ccc(C=Cc3ccc(O)c(C(=O)O)c3)cc2)ccc1O` [1,4-bis(3-carboxy-4-hydroxyphenylethenyl)-benzene], the “staining relative to Chrysamine G, Congo red, or Thioflavin S” value ([1]; human AD brain) was “much more intense than that observed with Chrysamine G, Congo red, or Thioflavin S”, the “staining of human AD brain” value [1] was “Numerous amyloid plaques and neuropil threads can be readily identified as well as a neurofibrillary tangle; also recorded: Visible are a large number of neuritic plaques, a neurofibrillary tangle and frequent neuropil threads” and the “staining of plaque in transgenic mouse brain” value [2] was “intensely stained plaque”.
For `O=C(O)c1cc(N=Nc2ccc(-c3ccc(N=Nc4ccc(O)c(C(=O)O)c4)cc3S(=O)(=O)O)c(S(=O)(=O)O)c2)ccc1O` [2,2'-(SO3)2 CG], the “binding activity to Aβ” value (Aβ(10-43) [3]) was “inactivity”.
In the case of `O=C(O)c1cc(N=Nc2ccc(-c3ccc(N=Nc4ccc(O)c(C(=O)O)c4)c(C(=O)O)c3)cc2C(=O)O)ccc1O` [3,3'-(COOH)2 CG], the “loss of activity from Chrysamine G (fold)” value (Aβ(10-43) [3]; vs Chrysamine G) is reported as 7 fold.
For `O=C(O)c1cc(N=Nc2ccc(-c3ccc(N=Nc4ccc(O)c(C(=O)O)c4)c(Br)c3)cc2Br)ccc1O` [3,3'-Br2 CG], the “Ki relative to Chrysamine G” value (Aβ(10-43) [3]) was “about half that of Chrysamine G”.
With `O=C(O)c1cc(N=Nc2ccc(-c3ccc(N=Nc4ccc(O)c(C(=O)O)c4)c(Cl)c3)cc2Cl)ccc1O` [3,3'-Cl2 CG] the “Ki relative to Chrysamine G” value (Aβ(10-43) [3]) was “about half that of Chrysamine G”.
In the case of `O=C(O)c1cc(N=Nc2ccc(-c3ccc(N=Nc4ccc(O)c(C(=O)O)c4)c(I)c3)cc2I)ccc1O` [3,3'-I2 CG], the “Ki relative to Chrysamine G” value (Aβ(10-43) [3]) is reported as “about half that of Chrysamine G”.
In the case of `O=C(O)c1cc(N=Nc2ccc(-c3ccc(N=Nc4ccc(O)c(C(=O)O)c4)c(I)c3)cc2)ccc1O` [3-ICG], the “potency/affinity relative to reference compound” value (Aβ(10-43) [3]) is reported as “slightly more potent than Chrysamine G”.
For `O=C(O)c1cc(F)cc(N=Nc2ccc(-c3ccc(N=Nc4cc(F)cc(C(=O)O)c4O)cc3)cc2)c1O` [(5-FSA)CG], the “potency/affinity relative to reference compound” value (Aβ(10-43) [3]) was “one-third as potent”.
For `O=C(O)c1c(O)ccc(N=Nc2ccc(-c3ccc(N=Nc4ccc(O)c(C(=O)O)c4O)cc3)cc2)c1O` [(6-OHSA)CG], the “potency/affinity relative to reference compound” value (Aβ(10-43) [3]) was “highest affinity compound in this series”.
For `O=C(O)c1cc(N=Nc2ccc(-c3ccc(N=Nc4ccc(O)c(C(=O)O)c4)cc3)cc2)ccc1O` [Chrysamine G, 4,4'-bis(3-carboxy-4-hydroxyphenylazo)-biphenyl], the “binding in Down's syndrome brain vs control” value [4] was “above the control range”, the Kd (Aβ(10-43) [5]) was 250 to 400 nM and the “Bmax (Table 1)” value ([6]; Control, n = 6) was 0.576 ± .092 pmol/μg prot. The Bmax ([6]; typical control brain sample, FIG. 4B) was 614 fmol/μg protein, the “radioactivity that is unchanged Chrysamine G” value ([7]; 60 min, in words) was “essentially all” and the remaining at 1 h ([7]; mouse, iv, 0.05 uCi/g) was > 95%. For the same compound, the “correlation of binding with NPs (r)” value ([8]; AD brains alone, p=0.007) was 0.59, the “correlation of binding with NFTs (r)” value ([8]; AD brains alone, p=0.026) was 0.50 and the “correlation of binding with NP counts (r)” value ([8]; brains with cerebrovascular amyloid deposits, p=0.15) was 0.49. The “correlation of binding with NP counts (r)” value ([8]; brains without amyloid angiopathy, p=0.01) was 0.79, the “correlation of binding with NFTs (r)” value ([8]; controls included, p=0.001) was 0.60 and the “correlation of binding with NPs (r)” value ([8]; controls included, p=0.001) was 0.69. The “radioactivity in brain over time” value [9] was “stayed nearly constant”, the “saturable (specific) binding, share of total binding” value ([10]; AD brain homogenates) was 60-80% and the total binding ([10]; Cerebellum, AD (n = 11)) was 73 ± 9 fmol/μg protein. For the same compound, the total binding ([10]; Frontal Pole, AD (n = 10), p < 0.006) was 124 ± 16 fmol/μg protein, the total binding ([10]; Head of Caudate, AD (n = 7), p = 0.14) was 123 ± 22 fmol/μg protein and the total binding ([10]; Inferior Parietal, AD (n = 11), p < 0.03) was 137 ± 19 fmol/μg protein. The total binding ([10]; Occipital, AD (n = 11), p = 0.1) was 95 ± 12 fmol/μg protein, the total binding ([10]; Superior Temporal, AD (n = 11), p < 0.02) was 121 ± 14 fmol/μg protein and the total binding ([10]; Superior/Middle Frontal, AD (n = 11), p < 0.005) was 130 ± 21 fmol/μg protein. For the same compound, the “saturable and total binding vs control” value ([10]; in words) was “greater in AD brain than in control”, the “Bmax (Table 1)” value ([11]; AD, n = 5) was 0.784 ± .061 pmol/μg prot and the “Bmax in AD brain higher than control” value ([11]; not significant (p=0.09)) was 36%. The “KD in AD brain lower than control” value ([11]; not significant (p=0.29)) was 16%, the Bmax ([11]; typical AD brain sample, 48 NP/×200, FIG. 4B) was 790 fmol/μg protein and the “concentration range showing protective effects” value (PC-12 cells; Aβ(25-35)) was 0.1 to 1.0 µM. The “protective effects in cells incubated with 1 μM Aβ(25-35)” value (PC-12 cells) was “protective effects at 0.1 and 1 μM”, the “protective effect against Aβ(25-35)-induced decrease in MTT reduction” value (PC-12 cells) was “dose-dependent, protective effect; also recorded: protective effect which is dependent on both the concentration of Aβ(25-35) (FIG. 12) as well as the concentration of Chrysamine G; also recorded: prevents Aβ-induced cytotoxicity” and the “effect on MTT reduction in the absence of Aβ(25-35)” value (PC-12 cells; vs control, FIG. 13) was “no significant difference”. For the same compound, the energy of binding (Aβ(10-43) [3]) was “roughly 38 KJ/mole”, the total binding ([12]; Cerebellum, Control (n = 8)) was 75 ± 13 fmol/μg protein and the total binding ([12]; Frontal Pole, Control (n = 6)) was 58 ± 8 fmol/μg protein. It also gave a total binding ([12]; Head of Caudate, Control (n = 4)) of 73 ± 11 fmol/μg protein, a total binding ([12]; Inferior Parietal, Control (n = 8)) of 76 ± 13 fmol/μg protein and a total binding ([12]; Occipital, Control (n = 8)) of 64 ± 16 fmol/μg protein. It also gave a total binding ([12]; Superior Temporal, Control (n = 8)) of 66 ± 17 fmol/μg protein and a total binding ([12]; Superior/Middle Frontal, Control (n = 8)) of 54 ± 10 fmol/μg protein.
In the case of `Nc1c(/N=N/c2ccc(-c3ccc(/N=N/c4cc(S(=O)(=O)O)c5ccccc5c4N)cc3)cc2)cc(S(=O)(=O)O)c2ccccc12` [Congo red], the “effect on amylin toxicity to pancreatic islet cells” value (amylin) is listed as “inhibit pancreatic islet cell toxicity of diabetes-associated amylin; also recorded: protect pancreatic islet cells from the toxicity caused by amylin”, the “effect on aggregation of Aβ” value (Aβ [13]) is listed as “does inhibit aggregation of Aβ” and the “crossing of the blood-brain barrier” value [14] is listed as “does not cross the blood-brain barrier well”. The “effect on Aβ-induced neurotoxicity and cell degeneration” value (Aβ [15]; in vitro, in words) was “inhibits fibrillar Aβ neurotoxicity; also recorded: inhibits Aβ-induced neurotoxicity and cell degeneration in vitro”, the “concentration for complete protection from Aβ-induced toxicity” value (Aβ [15]; literature) was ≤ 20 µM and the “concentration over which Aβ-induced toxicity is protected against” value (Aβ [15]; literature) was “over 2 μM”. For the same compound, the octanol/water partition coefficient [16] was 0.665±0.037 and the brain/kidney ratio [17] was “approximately 0.07”.
With `O=C(O)c1cc(N=Nc2ccccc2)ccc1O` [aniline derivative] the “binding activity to Aβ” value (Aβ(10-43) [3]) was “decrease in affinity” and the energy of binding (Aβ(10-43) [3]) was 23 kJ/mol.
With `Oc1ccc(N=Nc2ccc(-c3ccc(N=Nc4ccc(O)cc4)cc3)cc2)cc1` [phenol derivative] the “protective effects in cells incubated with 1 μM Aβ(25-35)” value (PC-12 cells) was “no protective effects, and perhaps enhanced the toxicity of Aβ”, the “protective effect against Aβ(25-35)-induced decrease in MTT reduction” value (PC-12 cells) was “does not prevent Aβ-induced cytotoxicity” and the “binding activity to Aβ” value (Aβ(10-43) [3]) was “completely destroyed binding affinity; also recorded: does not bind to synthetic Aβ”.
In the case of `O=C(O)c1ccccc1O` [salicylic acid], the “binding activity to Aβ” value (Aβ(10-43) [3]) is reported as “total lack of binding activity; also recorded: inactivity”.
